As to `Cc1cc([C@@H](O)[C@@H](C)N2CCC(O)(c3ccc(F)cc3)CC2)cc(C)c1O[Si](C(C)C)(C(C)C)C(C)C` (relative stereo), the melting point – broadly, the temperature, or range, at which the solid turns liquid – is 186 to 187 °C. Regarding `CCOC(=O)c1ccc(OCC(=O)O)cc1`, the melting point was in the range of 129 to 130 °C. Under `COCOc1cc2c(cc1-c1cc(-c3ccc(C(=O)O)cc3)ccc1-c1ccccc1)C(C)(C)CCC2(C)C` stands 90 to 94 °C. The result for `COc1cc(OC)c2c(=O)[nH]c(-c3ccc4[nH]nc(CO)c4c3)nc2c1` reads 264 to 266 °C; that for `Cc1cnn(-c2ccccc2)c1-c1nn(-c2cccc(C(F)(F)F)c2)ccc1=O`, 208 to 211 °C; that for `NC(=O)C1CCCc2c(C(=O)O)cccc21` (stereo unspecified), 247 to 249 °C. Under `COC(=O)c1cc(CC#N)cc(CC#N)c1` stands 90 to 92 °C; under `CN1CCCNC1=C[N+](=O)[O-]`, 114 to 115 °C; under `Cc1noc(-c2ccc(-c3cscn3)cc2)c1-c1ccc(S(N)(=O)=O)cc1`, 236 °C. Turning to `COC(=O)Cc1nc(-c2ccc(OC)c(OC)c2)c2cc(Cl)ccc2n1`, the melting point fell in the range of 144 to 145 °C. In turn, `CCOC(=O)Cc1c(CC)nn(-c2ccccc2)c1CC` showed a melting point of 129 to 130 °C.

Take `NC(=O)c1ccc(CCCNCC(O)COc2ccccc2)s1` (racemic): the melting point fell in the range of 129 to 130 °C. For the compound `CC1=C(CC(=O)O)c2cc(F)ccc2C1=Cc1ccc(S(C)(=O)=O)cc1`, the melting point was 204 to 206 °C.

For the compound `O=C(O)c1cccc(-c2ccc3c(n2)C(Oc2ccc(Cl)cc2Cl)CC3)c1` (stereo unspecified), the melting point was 198 to 204 °C. Under `CCc1[nH]n(C2CCCC2)c2nc(CN3CCc4ccccc4C3)nc(=O)c1-2` stands 149 to 151 °C; under `COC(=O)c1ccc(NS(C)(=O)=O)c(C=NO)c1`, 160 °C. Take `CC12C=CC(=O)CC1CCC1C2CCC2(C)C(C(=O)NC3(C#N)CCCC3)CCC12` (stereo unspecified): the melting point was 262 to 269 °C.

For `CCCN(CCC)C1Cc2cc3c(cc2C1)C(=O)N(Cc1ccc(S(N)(=O)=O)cc1)C3=O`, the melting point lay in the range of 190 to 194 °C. As to `CC(Oc1ccc(Oc2ccccc2)cc1)(C(=O)O)C(F)(F)F` (stereo unspecified), the melting point lay in the range of 111 to 112 °C. Under `CCOC(=O)c1cc2ccc(Cl)c(N(C)S(=O)(=O)c3cccs3)c2[nH]1` stands 156 to 157 °C. The result for `[O-][N+](O)=CCN=Nc1ccccc1` reads 95 to 97 °C; that for `CC1=C(C)C(Cc2csc3ccccc23)N(C)C=C1` (stereo unspecified), 185 to 190 °C. Under `N#Cc1ccc2c3c(cc([N+](=O)[O-])c2c1)NCC3CCl` (stereo unspecified) stands 237 to 238 °C.

In turn, `CC(=O)Nc1nc(CC(=O)O)ns1` returned a melting point of 161 to 163 °C.

The compound `Cc1c(C)c2c(c(C)c1N)CC(C)(CN1CCC(Nc3ccccc3)CC1)O2` (stereo unspecified) registered a melting point of 116 to 118 °C. The result for `O=[N+]([O-])c1ccc2c(c1)C(c1ccccc1F)=NCC(OP(=O)(N1CCOCC1)N1CCOCC1)=N2` reads 169 to 172 °C; that for `COC=C(C(=O)OC)c1c(OC)ncnc1Oc1cccc(COc2ccccc2C#N)c1`, 132 to 135 °C; that for `O=C(c1ccccc1)C1CCN(CC2CN(c3ccccc3)C(=O)O2)CC1` (stereo unspecified), 104 to 105 °C.

As for `C=COCCn1cccc1-c1nc(-c2ccc(OC)cc2)c(-c2ccc(OC)cc2)s1`, the melting point lay in the range of 81.5 to 84.5 °C. The result for `O=C(O)c1cccc2sc3ccccc3c(=O)c12` reads 269 to 270 °C. For the compound `[N-]=[N+]=NCc1nc2ccccc2n1Cc1ccc(Cl)c(Cl)c1`, the melting point lay within 78 to 80 °C.

Turning to `COC(=O)c1cnc(CO)n1C(c1ccccc1)c1ccccc1`, the melting point was 160 °C. Under `N#CC1=C(C2CCCCCC2)Nc2n[nH]cc2C1c1cccc(C#N)c1Br` (stereo unspecified) stands 252 °C; under `CCOC(=O)c1c(N)c2cccnc2n(CC)c1=O`, 205 to 208 °C; under `COc1cc2c(cc1-c1ccc(F)cc1)C(=CNc1ccc(CN3CCCCC3)cc1)C(=O)NC2=O`, 227 to 230 °C. The result for `O=[N+]([O-])c1ccc(Cl)c(S)c1` reads 267 to 268 °C; that for `COc1cc(COc2nn(-c3ccccc3)cc2/C=C/c2cncn2C)ccc1OCc1nc(-c2ccco2)oc1C`, 144 to 145 °C; that for `CC(=O)N1CCC(C(=O)c2ccc(Br)cc2F)CC1`, 111 to 113 °C.

`CC1(C)CC([N+]([O-])=Cc2ccccc2)CC(C)(C)N1`: the melting point came to 113 °C. Under `CSc1cc([N+](=O)[O-])ccc1C(N)=O` stands 202 to 204 °C; under `O=C1Nc2ccccc2Sc2ncccc21`, 260 to 261 °C; under `CNc1cc(Cl)cc(NC)c1[N+](=O)[O-]`, 193 °C.

`CC(C)c1ccc(NC(=O)OC(C)(C)C)c(NC(=O)CC(=O)c2cccc(C#N)c2)c1` came in with a melting point of 179 to 180 °C.

`Nc1cc(Cl)ccc1-n1cccc1` returned a melting point of 89 to 90 °C. Under `CC(C)(C)c1cc(C(=O)c2ccc(O)cc2O)cc(C(C)(C)C)c1O` stands 192 to 193 °C; under `CC(=O)NS(=O)(=O)c1cccc(-c2cccc(-c3cc(-c4ccc(C(F)(F)F)cc4)cc(C)n3)n2)c1`, 244 °C; under `COc1cc([C@@H](O)[C@@H](C)N2CCC(O)(c3ccccc3)CC2)ccc1O` (relative stereo), 188 °C. `COc1ccc(C2CCCN2S(=O)(=O)c2ccc(Cl)cc2)cc1` (racemic) showed a melting point of 133 °C. The result for `COc1cc2c(cc1Br)-c1cc3c(n1CC2)C(=O)N(C(C)(C)C)CCCC3` reads 127 to 129 °C; that for `CC(=O)Nc1cc(Oc2ccc3c(C(=O)Nc4cc(-n5cnc(C)c5)cc(C(F)(F)F)c4)cccc3c2)ncn1`, 291 to 293 °C; that for `CCOC(=O)c1cc(C(=O)c2cccc(S(=O)(=O)F)c2)sc1N`, 168 to 170 °C. Under `COc1cc2c(cc1O)C(Cc1cc(Cl)ccc1[N+](=O)[O-])N(C)CC2` (stereo unspecified) stands 123 to 126 °C; under `CN1CCN(c2ccc(Nc3nccc(-c4c[nH]nc4-c4ccc(Cl)cc4)n3)cc2)CC1`, 282 to 284 °C.

In turn, `NCC1CCN(c2ncc3ncnc(Nc4ccc(F)c(Cl)c4)c3n2)CC1` returned a melting point of 165 °C. `CCN(CC)S(=O)(=O)c1ccccc1N` registered a melting point of 45 to 51 °C.

With `Cc1ccc(S(=O)(=O)n2ccnc2C(O)(c2ccccc2)c2ccc(Cl)cc2)cc1` (stereo unspecified), the melting point lay within 116 to 118 °C. Under `NC(=O)c1cc2c(C=Cc3ccccc3)cncc2s1` stands 257 to 258 °C; under `Cc1ccc(-n2nc(CC(=O)N(C)C)c3c4ccc(Cl)cc4n(C)c3c2=O)cn1`, 253 to 255 °C; under `CN(C)c1ccc(NC(=O)N(CC2CCC(CN(C(=O)Nc3ccc(N(C)C)cc3)C3CC4CCC3C4)CC2)C2CC3CCC2C3)cc1` (stereo unspecified), 188 to 191 °C. For `CC(C)n1c(C=O)c(-c2ccc(F)cc2)c(-c2ccc(F)cc2)c1C(=O)Nc1ccc(CC(=O)N(C)C)cc1`, the melting point is 226 to 227 °C. The result for `CCOC(=O)c1cc(C)nc2c(OCc3ccccc3)cccc12` reads 134 °C; that for `CCOC(=O)C1=C(N)N=C(OCC)C(C(=O)O)C1c1ccccc1[N+](=O)[O-]` (stereo unspecified), 133 to 134 °C; that for `CN(C)Cc1nc(N)nc(N)c1-c1ccc(Cl)cc1Cl`, 170 to 172 °C. Under `CC1=CC(COC(c2ccccc2)(c2ccccc2)c2ccccc2)OC1O` (stereo unspecified) stands 100 to 102 °C; under `NC(=O)NC1(C(=O)O)CCCc2ncc(Cl)cc21` (stereo unspecified), 188 to 190 °C. In turn, `CCCNCc1cc2ccc(NC(=O)c3ccc(OC[C@@H]4CCCO4)cc3)c(C)c2[nH]1` returned a melting point of 117 to 119 °C. Under `CCCOCCOc1ccc(OCC(O)CNCCNC(=O)N2CCOCC2)cc1` (stereo unspecified) stands 88 °C; under `COCOc1cc(OC)ccc1C(=O)c1ccc(OCc2nc(-c3ccccc3)oc2C)cc1`, 119 to 120 °C; under `CCCCCS(=O)(=O)NC(=O)/C=C/c1c(C)cc(C)n1Cc1ccc(Cl)cc1Cl`, 170 to 171 °C.

`CCCCNc1nc(-c2cc(OC)c(OC)c(OC)c2)nc2sc(C#N)c(C)c12` registered a melting point of 192 to 194 °C. Under `O=C(CBr)Nc1ccccc1` stands 131 to 135 °C. Under `CCC(=O)NCC1CC1c1cccc2nc(C)nn12` (stereo unspecified) stands 118 to 119 °C. The result for `O=C(NC(Cc1ccc(OCc2ccccc2)cc1)C(=O)O)c1cn2cccc(OCc3ccc(Cl)cc3)c2n1` (stereo unspecified) reads 210 °C. `CCCCCCCCCCCCCCCC(=O)C1C(=O)CC(C#N)CC1=O` (stereo unspecified) returned a melting point of 66 to 69 °C. `O=C(Nc1nnn[nH]1)c1cnc2sc3ccccc3n2c1=O` showed a melting point of 330 to 332 °C. Regarding `NC(=NCC(F)(F)F)Nc1ccnc(CCCCNC(=S)NCC(F)(F)F)n1`, the melting point is 142 to 145 °C.

The compound `COC(=O)c1ccc(CC(C)NCC(O)c2ccc(O)c(CO)c2)cc1` (stereo unspecified) came in with a melting point of 118 to 120 °C. Under `O=C1c2ccncc2C(=O)c2c(F)ccc(F)c21` stands 197 to 199 °C; under `COCc1cccc(CNC(=O)c2nc3scc(COCc4ccc(C(=O)O)cc4)c3c(=O)[nH]2)c1`, 242 to 244 °C; under `COC(=O)[C@@]1(C)Oc2ccccc2N(C)C1=O`, 76 to 78 °C. Take `CN(C)c1ccc(-c2cc(C(F)(F)F)c3c(-c4ccccc4)nn(COCC[Si](C)(C)C)c3n2)cc1`: the melting point was determined as 98 °C.

Regarding `COc1cccc(C(=O)Nc2ccc(N3CCCC3)cc2C(C)=O)c1OC`, the melting point fell in the range of 137 to 140 °C. As for `COc1ccc(C=Cc2cc3cc(Br)ccc3o2)cc1`, the melting point is 190 to 194 °C.

Consider `COc1ccc(-c2sc3c(c2C)c(=O)c(C(C)=O)cn3Cc2ccccc2F)cc1`, for which the melting point lay within 215 to 216 °C.

Take `COC(=O)CSc1cc(NC(=O)OC(C)(C)C)c([N+](=O)[O-])cc1I`: the melting point lay within 110 to 112 °C. Take `COc1ccc(-c2c(C(=O)O)oc3cc(OCc4ccc(OCc5ccc6ccccc6n5)cc4)cc(O)c3c2=O)cc1`: the melting point lay in the range of 195 to 196 °C.
